Biological target: GR (Homo sapiens (Human), UniProt P04150)
Experiment: In Vitro GR Luciferase Reporter Assay
Assay type: cell-based
Details: CHO-K1-GR-MMTV-Luc reporter cells, antagonist assay, 10 nM Dexamethasone, 18-24 hours
Description: Example 4: In Vitro GR Luciferase Reporter Assay
Cell Line: CHO-K1-GR-MMTV-Luc reporter cells
Culture Media: DMEM (with phenol red)+10% FBS
Assay Media: DMEM (without phenol red)+10% CSS
Culture CHO-K1-GR-MMTV-Luc reporter cells in 15 cm plates in Culture Media at conditions less than 90% confluence.
Prepare 200×DMSO 1:5 serial dilutions of control and test compounds in 96-well non-sterile V bottom plate in DMSO, 8 serial dilutions for each compound.
Prepare 5× Assay Media diluted compound serial dilutions in 96-well non-sterile V bottom plate: Add 97.5 uL/well of Assay Media into 96-well then add 2.5 ul of 200× concentration of compounds and mix well.
Seed cells for Antagonist Assay: […] CHO-K1-GR-MMTV-Luc reporter cells were seeded in a Corning 3707 flat clear bottom 384-well white TC plate in 20 ul of Assay Media containing 12.5 nM Dexamethasone (final concentration=10 nM).
Add compounds: 5 ul of assay media diluted compounds were added to appropriate wells and followed a quick spin (1000 rpm, 10 sec) to bring media and cells to the bottom of plate. The plates were covered with SealMate film to avoid evaporation and placed in 37° C. incubator for approximately 18-24 hours.
Read plates: Equilibrate appropriate amount of Promega OneGlo luciferase reagent to room temperature. Remove the plates from incubator and add 25 uL of OneGlo reagent/well by multiple channel pipette and read the plates with Tecan F500 luminometer within 3 minutes.
The ability of the compounds disclosed herein to inhibit GR activity was quantified and the respective IC50 value was determined. Table 3 provides the cellular IC50 values of various substituted steroidal compounds disclosed herein.

Chain of GR (P04150 whole entry): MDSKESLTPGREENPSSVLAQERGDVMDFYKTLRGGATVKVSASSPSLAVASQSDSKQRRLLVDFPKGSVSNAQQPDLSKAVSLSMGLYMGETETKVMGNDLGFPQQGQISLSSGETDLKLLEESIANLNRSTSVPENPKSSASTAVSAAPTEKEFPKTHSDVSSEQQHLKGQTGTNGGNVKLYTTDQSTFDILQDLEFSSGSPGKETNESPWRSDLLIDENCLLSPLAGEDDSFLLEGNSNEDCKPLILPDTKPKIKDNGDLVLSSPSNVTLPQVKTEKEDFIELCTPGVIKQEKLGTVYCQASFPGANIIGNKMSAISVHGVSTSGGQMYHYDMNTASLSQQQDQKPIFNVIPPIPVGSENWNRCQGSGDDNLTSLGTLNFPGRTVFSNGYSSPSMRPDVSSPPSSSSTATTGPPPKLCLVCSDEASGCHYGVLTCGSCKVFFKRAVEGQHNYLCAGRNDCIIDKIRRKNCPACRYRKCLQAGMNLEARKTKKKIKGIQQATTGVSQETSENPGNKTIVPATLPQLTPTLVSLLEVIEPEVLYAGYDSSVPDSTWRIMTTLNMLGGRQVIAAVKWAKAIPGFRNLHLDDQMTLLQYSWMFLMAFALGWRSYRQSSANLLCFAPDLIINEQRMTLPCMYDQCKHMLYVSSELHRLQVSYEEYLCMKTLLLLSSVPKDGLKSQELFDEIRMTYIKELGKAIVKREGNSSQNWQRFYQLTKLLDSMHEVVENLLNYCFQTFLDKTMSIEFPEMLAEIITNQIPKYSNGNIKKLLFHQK

Row | SMILES | IC50
1 | CC(C)c1ccc([C@H]2C[C@@]3(C)[C@@H](C[C@@H](C)[C@@]3(O)C#CC(C)(C)C)[C@@H]3CCC4=CC(=O)CCC4=C32)cc1 | > 100 nM
2 | CN(C)c1ccc([C@H]2C[C@@]3(C)[C@@H](CC[C@@]3(O)C#Cc3ccc(C(C)(C)C)cc3)[C@@H]3CCC4=CC(=O)CCC4=C32)cc1 | > 100 nM
3 | CN(C)c1ccc([C@H]2C[C@@]3(C)[C@@H](CC[C@@]3(O)C#CCO)[C@@H]3CCC4=CC(=O)CCC4=C32)cc1 | > 100 nM
4 | CN(C(=O)CO)c1ccc([C@H]2C[C@@]3(C)[C@@H](CC[C@@]3(O)C#CC(C)(C)C)[C@@H]3CCC4=CC(=O)CCC4=C32)cc1 | > 100 nM
5 | CN(C)c1c(F)cc([C@H]2C[C@@]3(C)[C@@H](CC[C@@]3(O)C#CC(F)(F)F)[C@@H]3CCC4=CC(=O)CCC4=C32)cc1F | > 100 nM
6 | CN(CC1CC1)c1ccc([C@H]2C[C@@]3(C)[C@@H](CC[C@@]3(O)C#CC(C)(C)C)[C@@H]3CCC4=CC(=O)CCC4=C32)cc1 | > 100 nM
7 | COc1cc([C@H]2C[C@@]3(C)[C@@H](CC[C@@]3(O)C#CC(C)(C)C)[C@@H]3CCC4=CC(=O)CCC4=C32)ccc1N(C)C | > 100 nM
8 | CN(C)c1cc([C@H]2C[C@@]3(C)[C@@H](CC[C@@]3(O)C#CC(F)(F)F)[C@@H]3CCC4=CC(=O)CCC4=C32)ccc1Cl | > 100 nM
9 | Cc1c(F)cc([C@H]2C[C@@]3(C)[C@@H](CC[C@@]3(O)C#Cc3ccccn3)[C@@H]3CCC4=CC(=O)CCC4=C32)cc1F | > 100 nM
10 | C[C@@H]1C[C@H]2[C@@H]3CCC4=CC(=O)CCC4=C3[C@@H](c3ccc(N(C)C)cc3)C[C@]2(C)[C@]1(O)C#CC(C)(C)C [drawing 335] | > 100 nM
11 | Cc1ccc([C@H]2C[C@@]3(C)[C@@H](CC[C@@]3(O)C#CC3CC3)[C@@H]3CCC4=CC(=O)CCC4=C32)cc1F | ≤ 100 nM
12 | Cc1ccc([C@H]2C[C@@]3(C)[C@@H](CC[C@@]3(O)C#CC(C)(C)C)[C@@H]3CCC4=CC(=O)CCC4=C32)cc1F | ≤ 100 nM
13 | CN(C)c1c(F)cc([C@H]2C[C@@]3(C)[C@@H](CC[C@@]3(O)C#CC(C)(C)C)[C@@H]3CCC4=CC(=O)CCC4=C32)cc1F | ≤ 100 nM
14 | Cc1c(F)cc([C@H]2C[C@@]3(C)[C@@H](CC[C@@]3(O)C#Cc3ccc(N(C)C)cc3)[C@@H]3CCC4=CC(=O)CCC4=C32)cc1F | > 100 nM
15 | Cc1c(F)cc([C@H]2C[C@@]3(C)[C@@H](CC[C@@]3(O)C#CC(F)(F)F)[C@@H]3CCC4=CC(=O)CCC4=C32)cc1F | > 100 nM
16 | CN(C)c1ccc([C@H]2C[C@@]3(C)[C@@H](CC[C@@]3(O)C#CC3CC3)[C@@H]3CCC4=CC(=O)CCC4=C32)c(F)c1F [drawing 303] | ≤ 100 nM
17 | CC(C)Oc1cccc([C@H]2C[C@@]3(C)[C@@H](CC[C@@]3(O)C#CC(F)(F)F)[C@@H]3CCC4=CC(=O)CCC4=C32)c1 | > 100 nM
18 | C[C@]12C[C@H](c3ccc4c(c3)OCO4)C3=C4CCC(=O)C=C4CC[C@H]3[C@@H]1CC[C@@]2(O)C#Cc1ccc(S(C)(=O)=O)cc1 | ≤ 100 nM
19 | CC(C)(C)C#C[C@]1(O)CC[C@H]2[C@@H]3CCC4=CC(=O)CCC4=C3[C@@H](c3ccc4c(c3)OCCO4)C[C@@]21C | ≤ 100 nM
20 | Cc1ccc([C@H]2C[C@@]3(C)[C@@H](CC[C@@]3(O)C#CC(C)C)[C@@H]3CCC4=CC(=O)CCC4=C32)cc1F | ≤ 100 nM
21 | CN(C)c1cc(F)c([C@H]2C[C@@]3(C)[C@@H](CC[C@@]3(O)C#CC3CC3)[C@@H]3CCC4=CC(=O)CCC4=C32)cc1F | ≤ 100 nM
22 | CC(C)(C)C#C[C@]1(O)CC[C@H]2[C@@H]3CCC4=CC(=O)CCC4=C3[C@@H](c3ccc(C(C)(C)C)cc3)C[C@@]21C [drawing 268] | ≤ 100 nM
23 | CC(C)(C)C#C[C@]1(O)CC[C@H]2[C@@H]3CCC4=CC(=O)CCC4=C3[C@@H](c3cc(F)c(-c4ccncc4)cc3F)C[C@@]21C | ≤ 100 nM
24 | COC1CN(c2ccc([C@H]3C[C@@]4(C)[C@@H](CC[C@@]4(O)C#CC(C)(C)OC)[C@@H]4CCC5=CC(=O)CCC5=C43)cc2)C1 | > 100 nM

Other lines, results leading:

Row | IC50 | SMILES
25 | ≤ 100 nM | C[C@]12C[C@H](c3ccc4c(c3)OCCO4)C3=C4CCC(=O)C=C4CC[C@H]3[C@@H]1CC[C@@]2(O)C#CC1CC1
26 | ≤ 100 nM | CC(C)C#C[C@]1(O)CC[C@H]2[C@@H]3CCC4=CC(=O)CCC4=C3[C@@H](c3ccc(N(C)C)c(F)c3)C[C@@]21C
27 | ≤ 100 nM | CC(C)C#C[C@]1(O)CC[C@H]2[C@@H]3CCC4=CC(=O)CCC4=C3[C@@H](c3c(F)cc(N4CCCC4)cc3F)C[C@@]21C
28 | ≤ 100 nM | CC(C)(C)C#C[C@]1(O)CC[C@H]2[C@@H]3CCC4=CC(=O)CCC4=C3[C@@H](c3ccc(C4(C)COC4)cc3)C[C@@]21C
29 | ≤ 100 nM | COC(C)(C)C#C[C@]1(O)CC[C@H]2[C@@H]3CCC4=CC(=O)CCC4=C3[C@@H](c3ccc(C(C)(C)C)cc3)C[C@@]21C
30 | ≤ 100 nM | [2H]C([2H])([2H])N(c1ccc([C@H]2C[C@@]3(C)[C@@H](CC[C@@]3(O)C#CC(C)(C)C)[C@@H]3CCC4=CC(=O)CCC4=C32)cc1)C([2H])([2H])[2H]
31 | ≤ 100 nM | CC(C)C#C[C@]1(O)CC[C@H]2[C@@H]3CCC4=CC(=O)CCC4=C3[C@@H](c3ccc4c(c3)OCO4)C[C@@]21C
32 | ≤ 100 nM | CC(C)(C)C#C[C@]1(O)CC[C@H]2[C@@H]3CCC4=CC(=O)CCC4=C3[C@@H](c3ccc(N4CCC[C@@H]4CO)cc3)C[C@@]21C [drawing 364]
33 | ≤ 100 nM | C[C@H]1CCCN1c1ccc([C@H]2C[C@@]3(C)[C@@H](CC[C@@]3(O)C#CC(C)(C)C)[C@@H]3CCC4=CC(=O)CCC4=C32)cc1
34 | ≤ 100 nM | CCN(C)c1cc(F)c([C@H]2C[C@@]3(C)[C@@H](CC[C@@]3(O)C#CC(C)C)[C@@H]3CCC4=CC(=O)CCC4=C32)c(F)c1
35 | ≤ 100 nM | COC(C)(C)C#C[C@]1(O)CC[C@H]2[C@@H]3CCC4=CC(=O)CCC4=C3[C@@H](c3ccc(N4CCCC4)cc3)C[C@@]21C [drawing 340]
36 | ≤ 100 nM | C[C@]12C[C@H](c3ccc4c(c3)OCO4)C3=C4CCC(=O)C=C4CC[C@H]3[C@@H]1CC[C@@]2(O)C#CC1CC1
37 | ≤ 100 nM | CCc1ccc([C@H]2C[C@@]3(C)[C@@H](CC[C@@]3(O)C#CC(C)(C)C)[C@@H]3CCC4=CC(=O)CCC4=C32)cc1
38 | ≤ 100 nM | CC(C)(C)C#C[C@]1(O)CC[C@H]2[C@@H]3CCC4=CC(=O)CCC4=C3[C@@H](c3ccc4c(c3)OCO4)C[C@@]21C [drawing 331]
39 | ≤ 100 nM | CC(C)C#C[C@]1(O)CC[C@H]2[C@@H]3CCC4=CC(=O)CCC4=C3[C@@H](c3c(F)cc(N(C)C)cc3F)C[C@@]21C
40 | ≤ 100 nM | COc1ccc([C@H]2C[C@@]3(C)[C@@H](CC[C@@]3(O)C#CC(C)(C)C)[C@@H]3CCC4=CC(=O)CCC4=C32)cc1
41 | ≤ 100 nM | CC(C)C#C[C@]1(O)CC[C@H]2[C@@H]3CCC4=CC(=O)CCC4=C3[C@@H](c3cc(F)c(N(C)C)cc3F)C[C@@]21C
42 | ≤ 100 nM | CCN(C)c1cc(F)c([C@H]2C[C@@]3(C)[C@@H](CC[C@@]3(O)C#CC3CC3)[C@@H]3CCC4=CC(=O)CCC4=C32)c(F)c1
43 | ≤ 100 nM | CC(=O)N1CCN(c2ccc([C@H]3C[C@@]4(C)[C@@H](CC[C@@]4(O)C#CC(C)(C)C)[C@@H]4CCC5=CC(=O)CCC5=C43)cc2)CC1
44 | ≤ 100 nM | CC(C)C#C[C@]1(O)CC[C@H]2[C@@H]3CCC4=CC(=O)CCC4=C3[C@@H](c3cc(F)c(C(C)C)c(F)c3)C[C@@]21C [drawing 299]
45 | ≤ 100 nM | CC(C)(C)C#C[C@]1(O)CC[C@H]2[C@@H]3CCC4=CC(=O)CCC4=C3[C@@H](c3ccc(C4CC4)cc3)C[C@@]21C
46 | ≤ 100 nM | Cc1c(F)cc([C@H]2C[C@@]3(C)[C@@H](CC[C@@]3(O)C#CC3CC3)[C@@H]3CCC4=CC(=O)CCC4=C32)cc1F
47 | ≤ 100 nM | CN(C)c1cc(F)c([C@H]2C[C@@]3(C)[C@@H](CC[C@@]3(O)C#CC(C)(C)C)[C@@H]3CCC4=CC(=O)CCC4=C32)c(F)c1
48 | ≤ 100 nM | COCCN(C)c1ccc([C@H]2C[C@@]3(C)[C@@H](CC[C@@]3(O)C#CC(C)(C)C)[C@@H]3CCC4=CC(=O)CCC4=C32)cc1
49 | ≤ 100 nM | CCc1cc(F)c([C@H]2C[C@@]3(C)[C@@H](CC[C@@]3(O)C#CC(C)C)[C@@H]3CCC4=CC(=O)CCC4=C32)c(F)c1
50 | ≤ 100 nM | Cc1cc([C@H]2C[C@@]3(C)[C@@H](CC[C@@]3(O)C#CC(C)(C)C)[C@@H]3CCC4=CC(=O)CCC4=C32)ccc1N(C)C [drawing 283]
51 | ≤ 100 nM | CC(C)N(C)c1ccc([C@H]2C[C@@]3(C)[C@@H](CC[C@@]3(O)C#CC(C)(C)C)[C@@H]3CCC4=CC(=O)CCC4=C32)cc1
52 | ≤ 100 nM | Cc1ccc([C@H]2C[C@@]3(C)[C@@H](CC[C@@]3(O)C#CC(C)(C)C)[C@@H]3CCC4=CC(=O)CCC4=C32)cc1C
53 | ≤ 100 nM | CN(C)c1ccc([C@H]2C[C@@]3(C)[C@@H](CC[C@@]3(O)C#Cc3ccccc3)[C@@H]3CCC4=CC(=O)CCC4=C32)cc1 [drawing 266]

Source: patent publication US11124537B2, “Inhibitors of glucocorticoid receptor” (ORIC Pharmaceuticals, Inc., priority 2015, dated 2021)
